Data on 16 compounds can be found in patent US10005792B2, “Aminoindane-, aminotetrahydronaphthalene- and aminobenzocyclobutane-derived PRMT5-inhibitors” (CTXT PTY LTD, priority 2014, dated 2018).

Assay [1] has as its system symmetrical dimethylation of arginine (Di-Methyl Histone H4R3) in cell line TE11. Description: PRMT5 Biomarker Assay. In kind it is cell-based. To be noted: Homo sapiens, TE-11; TE11 cells, 72 h incubation, EpiQuik Global Di-Methyl Histone H4R3 ELISA, corrected for total protein. On the procedure:
(§1) Compounds of the invention may be tested for potency to inhibit symmetrical dimethylation of arginine in the following assay:
The cell line TE11 was seeded at a density of 12,000 cells per well in 96 well tissue culture plates in DME medium and 10% foetal bovine serum, and allowed to adhere overnight under standard culture conditions (37° C., 5% CO2). Compound dilutions prepared in DMSO were added to the medium, with negative control wells reserved for treatment with DMSO only and positive controls receiving a potent PRMT5 inhibitor. The concentration of the inhibitor had been previously determined to give maximum inhibition of the methylation. After incubation for 72 h, cells were washed twice in ice-cold PBS, lysed in lysis buffer (20 mM Tris pH 7.4, 135 mM NaCl, 1.5 mM MgCl2, 1 mM EGTA, 10% glycerol and 1% Triton-X100), centrifuged at 15,000×g and the supernatants collected for subsequent analysis. The methylation level was determined using the EpiQuik™ Global Di-Methyl Histone H4R3 Quantification ELISA Kit (Epigentek, Farmingdale, N.Y.) as per the manufacturer's recommendations; in parallel the total protein amount in the lysate was quantified using a Lowry protein assay. The methylation level was corrected for the total protein amount of each sample, normalised to the controls, and the data fitted against a four-parameter logistic model to determine the 50% inhibitory concentration (IC50).

Assay [2] addresses T1, Full-length PRMT5 enzyme co-expressed with MEP50 (Homo sapiens (Human), UniProt O14744). Kind of assay: PRMT5 Biochemical Assay. To be noted: 200 nM histone H4 derived peptide substrate, 1 μM S-Adenosyl methionine, 4 hours at 37° C, Transcreener EPIGEN fluorescence polarisation. Background: Polarisation of emitted light reports the rotation of a fluorescent probe.
The subject of assay [3] is symmetrical dimethylation of arginine (Di-Methyl Histone H4 Arginine 3) in cell line TE11. Kind of assay: Revised PRMT5 Biomarker Assay. The settings on record: Homo sapiens, TE-11; TE11 cells, 72 hours incubation, immunofluorescence, corrected for cell number (Hoechst 33342), plate reader based. The procedure:
as §1
The cell line TE11 was seeded at a density of 6,000 cells per well in 96 well optical quality tissue culture plates in DME medium and 10% foetal bovine serum, and allowed to adhere for 5 hours under standard culture conditions (37 degree Celsius, 5% CO2). Compound dilutions prepared in DMSO were added to the medium, with negative control wells reserved for treatment with DMSO only and positive controls receiving a potent PRMT5 inhibitor compound at 1 μM concentration. After incubation for 72 hours, the cells were fixed with 3.7% formaldehyde in PBS for 30 minutes at room temperature, washed with phosphate buffer saline and blocked with Odyssey blocking buffer (LI-COR, Lincoln, Nebr.). Rabbit anti-Di-Methyl Histone H4 Arginine 3 specific antibody (Epigentek) in Odyssey blocking buffer was added and incubated for 14 hours at 4 degree Celsius. After washing, anti-rabbit secondary antibody labelled with Alexa647 dye (LifeTechnologies) and Hoechst 33342 (1 μg/mL, SigmaAldrich) were added for 1 hour incubation. Plates were washed and read on a PerkinElmer Envision 2103 in fluorescence intensity scanning mode (24 scans across the well area). The methylation level information was corrected for the number of cells as expressed by the Hoechst 33342 stain, converted to percent inhibition relative to controls on the same plate and the data fitted against a four-parameter logistic model to determine the 50% inhibitory concentration (IC50 plate-reader based). Alternatively, the plates were imaged on a PerkinElmer Phenix high content imaging platform. Using a Columbus image analysis pipeline, individual nuclei were located by Hoechst 33342 stain and the methylation level was calculated from the Alexa647-related intensity in the same area. The resulting mean intensity per cell was directly converted to percent inhibition as outlined above (IC50, imager based)).

For assay [4], the target named is T1, Full-length PRMT5 enzyme co-expressed with MEP50. Description: Revised PRMT5 Biochemical Assay. To be noted: 1 μM histone H4 derived peptide substrate, 1 μM S-Adenosyl methionine, 4 hours at 37 degree Celsius, Transcreener EPIGEN fluorescence polarisation. In a few lines: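 Full-length human PRMT5 co-expressed with His-MEP50 in insect cells (15 ng/reaction), 1 μM H4-derived peptide and 1 μM SAM in PBS/0.01% Tween-20/egg albumin/1 mM DTT, 4 h at 37 °C. SAH formation read by Transcreener EPIGEN fluorescence polarisation after 90 min detection. IC50 from four-parameter fit of plate-normalised % inhibition.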

A word on the IC50: it is the concentration that gives 50% inhibition. A higher IC50 goes with lower potency.

Molecules are shown by their SMILES.

T1 sequence (O14744 whole entry): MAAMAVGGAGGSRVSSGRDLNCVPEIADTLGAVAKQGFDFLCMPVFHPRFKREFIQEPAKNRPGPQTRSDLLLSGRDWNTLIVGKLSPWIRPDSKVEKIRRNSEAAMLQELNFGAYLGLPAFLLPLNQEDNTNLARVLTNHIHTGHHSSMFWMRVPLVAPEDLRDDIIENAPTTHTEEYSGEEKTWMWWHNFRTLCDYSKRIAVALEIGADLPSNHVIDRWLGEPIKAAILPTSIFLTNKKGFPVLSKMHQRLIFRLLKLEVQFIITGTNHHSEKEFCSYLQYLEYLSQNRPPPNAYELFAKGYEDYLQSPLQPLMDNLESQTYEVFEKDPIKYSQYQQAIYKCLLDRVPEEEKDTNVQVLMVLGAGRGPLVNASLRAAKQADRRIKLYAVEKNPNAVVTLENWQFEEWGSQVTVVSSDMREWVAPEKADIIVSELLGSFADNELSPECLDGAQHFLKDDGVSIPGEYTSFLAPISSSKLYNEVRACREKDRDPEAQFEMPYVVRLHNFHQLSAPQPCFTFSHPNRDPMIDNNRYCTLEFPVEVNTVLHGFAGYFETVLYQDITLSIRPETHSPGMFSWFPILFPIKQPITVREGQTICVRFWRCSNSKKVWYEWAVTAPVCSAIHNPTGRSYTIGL
T1 sequence (Q9BQA1 whole entry partner): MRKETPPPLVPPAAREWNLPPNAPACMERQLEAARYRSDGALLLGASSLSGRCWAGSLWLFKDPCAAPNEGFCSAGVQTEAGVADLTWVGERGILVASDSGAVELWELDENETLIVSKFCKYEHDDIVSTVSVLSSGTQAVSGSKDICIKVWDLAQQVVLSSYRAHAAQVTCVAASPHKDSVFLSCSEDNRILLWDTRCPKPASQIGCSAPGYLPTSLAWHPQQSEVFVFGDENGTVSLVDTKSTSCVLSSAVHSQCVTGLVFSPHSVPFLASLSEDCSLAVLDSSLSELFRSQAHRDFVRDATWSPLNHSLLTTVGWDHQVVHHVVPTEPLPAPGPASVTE

As for `O=C(NCC(O)CNC1Cc2ccccc2C1)c1ccc(C(=O)N2CCOCC2)cc1` (centres unmarked) [Compound 2, N-(3-((2,3-Dihydro-1H-inden-2-yl)amino)-2-hydroxypropyl)-4-(morpholine-4-carbonyl)benzamide], the IC50 is 69 nM in assay [1] and 310 nM in assay [2].

For the compound `Cc1nonc1COc1ccc(C(=O)NC[C@H](O)CNC2Cc3ccccc3C2)cc1` [Compound 8, (R)-N-(3-((2,3-Dihydro-1H-inden-2-yl)amino)-2-hydroxypropyl)-4-((4-methyl-1,2,5-oxadiazol-3-yl)methoxy)benzamide], the IC50 is 336 nM in assay [1] and 263 nM in assay [2].

For `Cn1cc(Oc2ccc(C(=O)NC[C@H](O)CNC3Cc4ccccc4C3)cc2)cn1` [Compound 13, (R)-N-(3-((2,3-Dihydro-1H-inden-2-yl)amino)-2-hydroxypropyl)-4-((1-methyl-1H-pyrazol-4-yl)oxy)benzamide], the IC50 in assay [1] is 348 nM; in assay [2] it was 634 nM.

With `O=C(NC[C@@H](O)CNC1Cc2ccccc2C1)c1ccc(Cl)cc1` [Compound 14, (S)-4-Chloro-N-(3-((2,3-dihydro-1H-inden-2-yl)amino)-2-hydroxypropyl)benzamide], the IC50 in assay [1] worked out at 210 nM; in assay [2] it was 445 nM.

Turning to `O=C(NC[C@@H](O)CNC1Cc2ccccc2C1)c1ccc(C(=O)N2CCOCC2)cc1` [Compound 15, (S)-N-(3-((2,3-Dihydro-1H-inden-2-yl)amino)-2-hydroxypropyl)-4-(morpholine-4-carbonyl)benzamide], the values for the IC50 in assay [1], in assay [3] and in assay [2] were 30 nM, 0.025 µM and 218 nM, respectively.

Regarding `O=C(NC[C@@H](O)CNC1Cc2ccccc2C1)c1ccc(N2CCOCC2)nc1` [Compound 16, (S)-N-(3-((2,3-Dihydro-1H-inden-2-yl)amino)-2-hydroxypropyl)-6-morpholinonicotinamide], the IC50 worked out at 259 nM in assay [1] and 301 nM in assay [2].

In the case of `Cn1cc(Oc2ccc(C(=O)NC[C@@H](O)CNC3Cc4ccccc4C3)cc2)cn1` [Compound 18, (S)-N-(3-((2,3-dihydro-1H-inden-2-yl)amino)-2-hydroxypropyl)-4-((1-methyl-1H-pyrazol-4-yl)oxy)benzamide], the IC50 in assay [1] amounted to 92 nM; in assay [2], 238 nM.

In the case of `O=C(NCC(O)CNC1Cc2ccccc2C1)c1ccc(C(=O)N2CCCCC2)cc1` (centres unmarked) [Compound 22, N-(3-((2,3-Dihydro-1H-inden-2-yl)amino)-2-hydroxypropyl)-4-(piperidine-1-carbonyl)benzamide], the IC50 in assay [1] worked out at 18 nM; in assay [3] it was 0.106 µM; in assay [2], 171 nM.

With `O=C(NCC(O)CNC1Cc2ccccc2C1)c1ccc(-c2ccccc2)cc1` (centres unmarked) [Compound 24, N-(3-((2,3-Dihydro-1H-inden-2-yl)amino)-2-hydroxypropyl)-[1,1′-biphenyl]-4-carboxamide], the IC50 in assay [1] stood at 363 nM; in assay [2], 425 nM.

For the compound `O=C(NCC(O)CNC1CCc2ccccc2C1)c1ccc(Cl)cc1` (centres unmarked) [Compound 30, 4-Chloro-N-(2-hydroxy-3-((1,2,3,4-tetrahydronaphthalen-2-yl)amino)propyl)benzamide], the values for the IC50 in assay [1] and in assay [2] were 1910 nM and 905 nM, respectively.

In the case of `CC(=O)N1CCC(Nc2cc(C(=O)NCC(O)CNC3Cc4ccccc4C3)ccn2)CC1` (centres unmarked) [Compound 35, 2-((1-Acetylpiperidin-4-yl)amino)-N-(3-((2,3-dihydro-1H-inden-2-yl)amino)-2-hydroxypropyl)isonicotinamide], the IC50 amounted to 8 nM in assay [1], 0.04 µM in assay [3], 50 nM in assay [2] and 155 nM in assay [4].

With `C[C@@H]1COCCN1C(=O)c1ccc(C(=O)NC[C@@H](O)CNC2Cc3ccccc3C2)cc1` [Compound 37, N—((S)-3-((2,3-Dihydro-1H-inden-2-yl)amino)-2-hydroxypropyl)-4-((R)-3-methylmorpholine-4-carbonyl)benzamide], the IC50 amounted to 19 nM in assay [1], 95 nM in assay [2] and 163 nM in assay [4].

For the compound `C[C@H]1COCCN1C(=O)c1ccc(C(=O)NC[C@@H](O)CNC2Cc3ccccc3C2)cc1` [Compound 38, N—((S)-3-((2,3-Dihydro-1H-inden-2-yl)amino)-2-hydroxypropyl)-4-((S)-3-methylmorpholine-4-carbonyl)benzamide], the IC50 in assay [1] worked out at 11 nM; in assay [3], 0.053 µM; in assay [2] it was 210 nM; in assay [4], 310 nM.

As for `O=C(NCC(O)CNC1Cc2ccccc2C1)c1ccc(C(=O)N2C3CCC2COC3)cc1` (centres unmarked) [Compound 40, 4-(3-Oxa-8-azabicyclo[3.2.1]octane-8-carbonyl)-N-(3-((2,3-dihydro-1H-inden-2-yl)amino)-2-hydroxypropyl)benzamide], the IC50 turned out to be 2 nM in assay [1], 0.021 µM in assay [3] and 57 nM in assay [2].

Take `COc1cc(C(=O)N2CCOCC2)ccc1C(=O)NC[C@@H](O)CNC1Cc2ccccc2C1` [Compound 98, (S)-N-(3-((2,3-dihydro-1H-inden-2-yl)amino)-2-hydroxypropyl)-2-methoxy-4-(morpholine-4-carbonyl)benzamide]: the IC50 was 7 nM in assay [1], 0.361 µM in assay [3] and 281 nM in assay [4].

In the case of `CCOc1cc(C(=O)N2C3CCCC2COC3)ccc1C(=O)NC[C@@H](O)CNC1Cc2ccccc2C1` [Compound 135, 4-(3-Oxa-9-azabicyclo[3.3.1]nonane-9-carbonyl)-N—((S)-3-((2,3-dihydro-1H-inden-2-yl)amino)-2-hydroxypropyl)-2-ethoxybenzamide], the IC50 in assay [3] came out at 0.0003 µM; in assay [4] it was 15 nM.
